Among the data in PubChem BioAssay (NCI) are GI50 and TGI values, retold here.

What all share (assay): NCI-60 cell line screen, 48 h
Assay [1] deals with BT-549 breast.
For assay [2], the system named is CAKI-1 renal.
For assay [3], the system named is COLO 205 colon.
The test system of assay [4] is DU-145 prostate.
For assay [5], the system named is KM12 colon.
Assay [6] deals with M14 melanoma.
For assay [7], the system named is SF-295 CNS.
The test system of assay [8] is SNB-75 CNS.
Assay [9] relates to TK-10 renal.
Assay [10] relates to UACC-257 melanoma.

Several values for one entry are separate records, joined by “and”; a condition that tells them apart may be missing. Equal values may be shown once.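 Assay format: 96-well plates, 48-hour exposure. At the GI50, growth is halved. TGI: concentration producing complete growth inhibition.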

Take `COc1ccc(C/C(=C(\C)c2ccc(OCCN3CCCC3)cc2)c2ccc(OCCN3CCCC3)cc2)cc1`: the GI50 was 1.67 µM in assay [1]; 1.66 µM in [2]; 1.72 µM in assay [3]; 1.86 µM in assay [4]; 1.79 µM in assay [5]; 1.67 µM in assay [6]. Further, the GI50 was 1.76 µM in assay [7], 1.59 µM in assay [8], 1.55 µM in [9] and 1.76 µM in assay [10]. The TGI in assay [1] was found to be 3.25 µM; in assay [2], 3.09 µM; in assay [3], 3.38 µM; in assay [4], 3.75 µM; in assay [5] it was 3.52 µM; in [6], 3.5 µM. Further, the TGI came out at 3.47 µM in assay [7], 3.22 µM in [8], 3.02 µM in [9] and 3.31 µM in assay [10].

Consider `Nc1ccc(C2=CC(c3ccc(Cl)cc3)N3C=CSC3=N2)cc1` (centres undefined), for which the GI50 in [1] was 2.64 µM; in assay [2], 23.1 µM; in assay [3], 8.59 µM; in [4], 5.11 µM; in assay [5] it was 1.95 µM; in assay [6] it was 2.86 µM. Besides, the GI50 is 13.1 µM in assay [7], 5.29 µM in [8], 11 µM in assay [9] and 3.8 µM in assay [10]. Also, the TGI is 7 µM in [1]; greater than 100 µM in assay [2]; 20.6 µM in assay [3]; 16.9 µM in assay [4]; 3.86 µM in assay [5]; 7.43 µM in [6]. The TGI is 40.4 µM in [7], 22.8 µM in [8], 28.5 µM in assay [9] and 17 µM in assay [10].

Turning to `COc1cc(/C=N/Nc2ncnc3c2cnn3-c2ccccc2)ccc1O`, the GI50 in assay [1] was greater than 25 µM; in assay [2] it was 2.52 µM; in assay [3], greater than 14.6 µM; in assay [4] it was greater than 19.6 µM; in assay [5], 1.64 µM; in assay [6], greater than 21.4 µM. Further, the GI50 was greater than 15.5 µM in assay [7], 1.1 µM in [8], greater than 19.2 µM in assay [9] and greater than 25 µM in [10]. The TGI in assay [1], in assay [2], in [3], in assay [4], in [5] and in [6] was greater than 25 µM in each case. The TGI is greater than 25 µM in assay [7], greater than 7.39 µM in assay [8], greater than 25 µM in [9] and greater than 25 µM in assay [10].

On to `O=C(CCCN1CCC(O)(c2ccc(Cl)cc2)CC1)c1ccc(F)cc1`, for which the TGI in assay [1] is greater than 100 µM; in assay [2], 23.4 µM; in assay [3], 43.2 µM; in assay [4] it was greater than 100 µM; in assay [5], 39.1 µM; in [6] it was 34.6 µM. Also, the TGI in assay [7] is 31.5 µM; in assay [8] it was 68.9 µM; in [9], greater than 100 µM; in [10] it was 46.7 µM.

For the molecule `CCC(C)Nc1ccc(N)cc1` (centres undefined), the GI50 is 6.26 µM in assay [1]; 16.7 µM in assay [2]; 1.72 µM in assay [3]; 5.75 µM in [4]; 4.09 µM in assay [5]; 4.72 µM in [6]. Also, the GI50 is 4.91 µM in assay [7], 4.25 µM in assay [8], 5.72 µM in assay [9] and 5.33 µM in [10]. The TGI in assay [1] was 20.9 µM; in assay [2], greater than 100 µM; in [3], 3.19 µM; in [4], 19.7 µM; in [5], 13.5 µM; in assay [6] it was 15.5 µM. The TGI amounted to 20.1 µM in assay [7], 20.3 µM in assay [8], 25.3 µM in assay [9] and 16.9 µM in assay [10].

In the case of `COc1ccc(/C(COc2ccc3oc(-c4ccccc4)cc(=O)c3c2)=N\O)cc1`, the GI50 in assay [1] was 0.836 µM; in assay [2], 0.0618 µM; in [3], 0.606 µM; in assay [4], 2.27 µM; in [5], 0.0245 µM; in assay [6] it was 0.321 µM. For the same molecule, the GI50 in [7] is less than 0.005 µM; in [8] it was 1.3 µM; in assay [9] it was 0.149 µM; in assay [10], 0.316 µM. Further, the TGI in assay [1] is 5.5 µM; in assay [2] it was 24.7 µM; in assay [3], 19.2 µM; in [4], 13.4 µM; in assay [5], 1.89 µM; in assay [6] it was greater than 50 µM. Further, the results for the TGI in assay [7], in assay [8] and in assay [9] were 0.154 µM, 23.2 µM and 9.75 µM, respectively.

Regarding `CNC(=O)c1cc(Oc2ccc(NC(=O)Nc3ccc(Cl)c(C(F)(F)F)c3)c(F)c2)ccn1`, the GI50 in [1] was 2.56 µM and 2.67 µM; in assay [2], 2.95 µM; in assay [3] it was 2.28 µM and 1.36 µM; in assay [4], 3.46 µM and 3.96 µM; in assay [5] it was 1.9 µM and 1.49 µM; in assay [6], 1.38 µM and 1.28 µM. Besides, the GI50 was 2.82 µM and 2.29 µM in assay [7]; 1.71 µM and 1.67 µM in [8]; 3.5 µM and 3.03 µM in [9]; 1.97 µM and 1.35 µM in assay [10]. Also, the TGI in assay [1] was 8.64 µM and 9.09 µM; in assay [2], greater than 30.4 µM; in assay [3] it was 8.52 µM and 5.74 µM; in [4] it was greater than 100 µM; in [5] it was 7.86 µM and > 10 µM; in assay [6], 6.75 µM and 8.81 µM. Besides, the TGI was 19.8 µM and > 10 µM in [7]; 7.01 µM and > 10 µM in [8]; 27.8 µM and > 10 µM in [9]; 6.03 µM and 5.1 µM in [10].

`COc1cccc(CC(C)=C(c2ccc(OCCN3CCCCC3)cc2)c2ccc(OCCN3CCCCC3)cc2)c1`: the GI50 in [1] was 1.93 µM; in [2] it was 2.3 µM; in assay [3], 1.41 µM; in assay [4], 2.11 µM; in assay [5], 1.93 µM; in assay [6] it was 1.67 µM. For the same molecule, the GI50 in assay [7] is 2.42 µM; in assay [8], 1.77 µM; in assay [9] it was 2.36 µM; in assay [10], 2.14 µM. Besides, the TGI was found to be 3.82 µM in [1]; 4.29 µM in [2]; 3.73 µM in assay [3]; 4.26 µM in assay [4]; 4.11 µM in assay [5]; 3.76 µM in [6]. The TGI in assay [7] was determined as 4.82 µM; in assay [8] it was 3.83 µM; in [9], 4.54 µM; in assay [10], 4.33 µM.

As to `CC(C)(C)c1ccc(Oc2ccc(N)cn2)cc1`, the GI50 in [1] was 11.3 µM; in [2] it was 21 µM; in assay [3], 50.7 µM; in [4] it was 38.2 µM; in [5] it was 44.2 µM; in [6], 56.4 µM. Also, the GI50 in assay [7] was 45.8 µM; in [8], 10.9 µM; in assay [9], greater than 100 µM; in assay [10] it was 37.8 µM. In addition, the TGI was 99.8 µM in assay [1]; greater than 100 µM in assay [2]; greater than 100 µM in assay [3]; greater than 100 µM in assay [4]; greater than 100 µM in [5]; greater than 100 µM in assay [6]. In addition, the TGI in assay [7], in assay [8], in [9] and in [10] was greater than 100 µM throughout.

As for `Cc1ccc(/C=N/Nc2nc(Nc3ccccc3)nc(-n3nc(C)cc3C)n2)cc1`, the GI50 in [1] is 4 µM; in assay [2], 2.56 µM; in [3] it was 3.6 µM; in [4], 5.45 µM; in assay [5] it was 3.28 µM; in [6], 2.47 µM. Further, the GI50 in assay [7] is 2.74 µM; in [8], 10.9 µM; in assay [9], 3.52 µM; in assay [10], 9.04 µM. Moreover, the TGI was 34.1 µM in assay [1]; 9.45 µM in assay [2]; 13.4 µM in assay [3]; greater than 100 µM in assay [4]; 13.1 µM in assay [5]; 10.8 µM in [6]. For the same molecule, the TGI in assay [7] is 14.4 µM; in assay [8], greater than 100 µM; in assay [9], 22.9 µM; in assay [10], 39.5 µM.

As to `CC1(C)CNc2cc(NC(=O)c3cccnc3NCc3ccncc3)ccc21`, the GI50 in [1] was 25.2 µM; in assay [2], 21.1 µM; in assay [3], 34.2 µM; in assay [4], 23 µM; in [5] it was 38 µM; in assay [6], 20.2 µM. The GI50 is 24.2 µM in [7], 1.87 µM in assay [8], 43.1 µM in [9] and 28.8 µM in [10]. Besides, the TGI is 98.2 µM in assay [1]; greater than 100 µM in [2]; greater than 100 µM in assay [3]; greater than 100 µM in assay [4]; greater than 100 µM in assay [5]; 88.6 µM in [6]. For the same molecule, the TGI in assay [7] was greater than 100 µM; in [8], greater than 100 µM; in assay [9] it was greater than 100 µM; in assay [10], 98.2 µM.
